# Test results published in US9474790B2, “Stable, protracted GLP-1/glucagon receptor co-agonists for medical use” (Novo Nordisk A/S, priority 2013, dated 2016).
# Numbered stars: 1 amine (or outer) side, 2 acyl side, 3 side chain; on linkers, the order of the positions; unused ones are H or OH. Square brackets hold non-standard residues; d marks the D form. Side chains are listed from the residue outwards. Peptide text beside a SMILES is read from it. * marks the point of attachment. C18 diacid = O=C(O)CCCCCCCCCCCCCCCCC(=O)*; γGlu = O=C(O)[C@H](CCC(=O)[*:2])N[*:1]; Ac4c = NC1(C(=O)O)CCC1; AEEA = NCCOCCOCC(=O)O; Aib = CC(C)(N)C(=O)O
# Assay: Thioflavin T (ThT) fibrillation assay for physical stability
# Assay type: physicochemical
# Conditions: 250 μM in 10 mM HEPES buffer, pH 7.5, 37° C., shaking 960 rpm
# Method in brief: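 Peptide at 250 μM in 10 mM HEPES pH 7.5 with 1 μM ThT, at 37° C with 960 rpm orbital shaking. Fluorescence (ex 444/em 485 nm) read every 20 min after 10 min pre-incubation; sigmoidal fit gives lag time (t0−2τ) and kapp (1/τ). Recovery is RP-HPLC peptide in the centrifuged, 0.22 μm-filtered supernatant as % of initial.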
row,Compound,THT assay Lag time (Ex. 76)
1,"CC(C)C[C@H](NC(=O)[C@H](Cc1ccc(O)cc1)NC(=O)[C@H](CCCCN)NC(=O)[C@H](CO)NC(=O)[C@H](CC(C)C)NC(=O)[C@H](CC(=O)O)NC(=O)[C@H](CO)NC(=O)[C@@H](NC(=O)[C@H](Cc1ccccc1)NC(=O)[C@@H](NC(=O)CNC(=O)[C@H](CCC(N)=O)NC(=O)C(C)(C)NC(=O)[C@@H](N)Cc1c[nH]cn1)[C@@H](C)O)[C@@H](C)O)C(=O)N[C@@H](CCC(=O)O)C(=O)N[C@@H](CO)C(=O)N[C@@H](CCCNC(=N)N)C(=O)N[C@@H](CCCNC(=N)N)C(=O)N[C@@H](C)C(=O)N[C@@H](CCCNC(=N)N)C(=O)N[C@@H](CCC(=O)O)C(=O)N[C@@H](Cc1ccccc1)C(=O)N[C@H](C(=O)N[C@@H](CCC(N)=O)C(=O)N[C@@H](Cc1c[nH]c2ccccc12)C(=O)N[C@@H](CC(C)C)C(=O)N[C@@H](CC(C)C)C(=O)N[C@@H](CCCCNC(=O)CC[C@H](NC(=O)CC[C@H](NC(=O)[C@H](CO)NC(=O)[C@H](CCC(=O)O)NC(=O)[C@H](CO)NC(=O)CC[C@H](NC(=O)CC[C@H](NC(=O)CCCCCCCCCCCCCCCCC(=O)O)C(=O)O)C(=O)O)C(=O)O)C(=O)O)C(=O)N[C@H](C(N)=O)[C@@H](C)O)C(C)C [Example 67, N^ε28-[(4S)-4-carboxy-4-[[(4S)-4-carboxy-4-[[(2S)-2-[[(2S)-4-carboxy-2-[[(2S)-2-[[(4S)-4-carboxy-4-[[(4S)-4-carboxy-4-(17-carboxyheptadecanoylamino)butanoyl]amino]butanoyl]amino]-3-hydroxypropanoyl]amino]butanoyl]amino]-3-hydroxypropanoyl]amino]butanoyl]amino]butanoyl]-[Aib2,Leu10,Glu15,Arg20,Glu21,Leu27,Lys28]-Glucagon amide] (H-H[Aib]QGTFTSDLSKYLESRRAREFVQWLLK([γGlu-γGlu-Ser-Glu-Ser-γGlu-γGlu-C18 diacid])T-NH2; N-terminus assumed)",45 h
2,"CC(C)C[C@H](NC(=O)[C@H](Cc1ccc(O)cc1)NC(=O)[C@H](CCCCN)NC(=O)[C@H](CO)NC(=O)[C@H](CC(C)C)NC(=O)[C@H](CC(=O)O)NC(=O)[C@H](CO)NC(=O)[C@@H](NC(=O)[C@H](Cc1ccccc1)NC(=O)[C@@H](NC(=O)CNC(=O)[C@H](CCC(N)=O)NC(=O)C1(NC(=O)[C@@H](N)Cc2c[nH]cn2)CCC1)[C@@H](C)O)[C@@H](C)O)C(=O)N[C@@H](CCC(=O)O)C(=O)N[C@@H](CO)C(=O)N[C@@H](CCCCN)C(=O)N[C@@H](CCCNC(=N)N)C(=O)N[C@@H](C)C(=O)N[C@@H](CCCNC(=N)N)C(=O)N[C@@H](CCC(=O)O)C(=O)N[C@@H](Cc1ccccc1)C(=O)N[C@H](C(=O)N[C@@H](CCC(N)=O)C(=O)N[C@@H](Cc1c[nH]c2ccccc12)C(=O)N[C@@H](CC(C)C)C(=O)N[C@@H](CC(C)C)C(=O)N[C@@H](CCCCNC(=O)CC[C@H](NC(=O)CC[C@H](NC(=O)[C@H](CO)NC(=O)[C@H](CCC(=O)O)NC(=O)[C@H](CO)NC(=O)CC[C@H](NC(=O)CC[C@H](NC(=O)CCCCCCCCCCCCCCCCC(=O)O)C(=O)O)C(=O)O)C(=O)O)C(=O)O)C(=O)N[C@H](C(N)=O)[C@@H](C)O)C(C)C [Example 68, N^ε28-[(4S)-4-carboxy-4-[[(4S)-4-carboxy-4-[[(2S)-2-[[(2S)-4-carboxy-2-[[(2S)-2-[[(4S)-4-carboxy-4-[[(4S)-4-carboxy-4-(17-carboxyheptadecanoylamino)butanoyl]amino]butanoyl]amino]-3-hydroxypropanoyl]amino]butanoyl]amino]-3-hydroxypropanoyl]amino]butanoyl]amino]butanoyl]-[Acb2,Leu10,Glu15,Lys17,Arg20,Glu21,Leu27,Lys28]-Glucagon amide] (H-H[Ac4c]QGTFTSDLSKYLESKRAREFVQWLLK([γGlu-γGlu-Ser-Glu-Ser-γGlu-γGlu-C18 diacid])T-NH2; N-terminus assumed)",45 h

# Further lines, results first:
row,THT assay Lag time (Ex. 76),Compound
1,45 h,"CC(C)C[C@H](NC(=O)[C@H](Cc1ccc(O)cc1)NC(=O)[C@H](CCCCN)NC(=O)[C@H](CO)NC(=O)[C@H](CC(C)C)NC(=O)[C@H](CC(=O)O)NC(=O)[C@H](CO)NC(=O)[C@@H](NC(=O)[C@H](Cc1ccccc1)NC(=O)[C@@H](NC(=O)CNC(=O)[C@H](CCC(N)=O)NC(=O)C1(NC(=O)[C@@H](N)Cc2c[nH]cn2)CCC1)[C@@H](C)O)[C@@H](C)O)C(=O)N[C@@H](CCC(=O)O)C(=O)N[C@@H](CO)C(=O)N[C@@H](CCCNC(=N)N)C(=O)N[C@@H](CCCNC(=N)N)C(=O)N[C@@H](C)C(=O)N[C@@H](CCC(N)=O)C(=O)N[C@@H](CC(=O)O)C(=O)N[C@@H](Cc1ccccc1)C(=O)N[C@H](C(=O)N[C@@H](CCC(N)=O)C(=O)N[C@@H](Cc1c[nH]c2ccccc12)C(=O)N[C@@H](CC(C)C)C(=O)N[C@@H](CC(C)C)C(=O)N[C@@H](CCCCNC(=O)COCCOCCNC(=O)COCCOCCNC(=O)CC[C@H](NC(=O)CC[C@H](NC(=O)CC[C@H](NC(=O)CCCCCCCCCCCCCCCCC(=O)O)C(=O)O)C(=O)O)C(=O)O)C(=O)N[C@H](C(N)=O)[C@@H](C)O)C(C)C [Example 63, N^ε28-[2-[2-[2-[[2-[2-[2-[[(4S)-4-carboxy-4-[[(4S)-4-carboxy-4-[[(4S)-4-carboxy-4-(17-carboxyheptadecanoylamino)butanoyl]amino]butanoyl]amino]butanoyl]amino]ethoxy]ethoxy]acetyl]amino]ethoxy]ethoxy]acetyl]-[Acb2,Leu10,Glu15,Leu27,Lys28]-Glucagon amide] (H-H[Ac4c]QGTFTSDLSKYLESRRAQDFVQWLLK([AEEA-AEEA-γGlu-γGlu-γGlu-C18 diacid])T-NH2; N-terminus assumed)"
2,45 h,CC(C)C[C@H](NC(=O)[C@H](Cc1ccc(O)cc1)NC(=O)[C@H](CCCCN)NC(=O)[C@H](CO)NC(=O)[C@H](CC(C)C)NC(=O)[C@H](CC(=O)O)NC(=O)[C@H](CO)NC(=O)[C@@H](NC(=O)[C@H](Cc1ccccc1)NC(=O)[C@@H](NC(=O)CNC(=O)[C@H](CCC(N)=O)NC(=O)C(C)(C)NC(=O)[C@@H](N)Cc1c[nH]cn1)[C@@H](C)O)[C@@H](C)O)C(=O)N[C@@H](CC(=O)O)C(=O)N[C@@H](C)C(=O)N[C@@H](CCCNC(=N)N)C(=O)N[C@@H](CCCNC(=N)N)C(=O)N[C@@H](C)C(=O)N[C@@H](CCCNC(=N)N)C(=O)N[C@@H](CC(=O)O)C(=O)N[C@@H](Cc1ccccc1)C(=O)N[C@H](C(=O)N[C@@H](CCC(N)=O)C(=O)N[C@@H](Cc1c[nH]c2ccccc12)C(=O)N[C@@H](CC(C)C)C(=O)N[C@@H](CC(C)C)C(=O)N[C@@H](CC(N)=O)C(=O)N[C@@H](CCCCNC(=O)CC[C@H](NC(=O)CC[C@H](NC(=O)COCCOCCNC(=O)COCCOCCNC(=O)CC[C@H](NC(=O)CCCCCCCCCCCCCCCCC(=O)O)C(=O)O)C(=O)O)C(=O)O)C(N)=O)C(C)C [Example 65] (H-H[Aib]QGTFTSDLSKYLDARRARDFVQWLLNK([γGlu-γGlu-AEEA-AEEA-γGlu-C18 diacid])-NH2; N-terminus assumed)
3,45 h,"CC(C)C[C@H](NC(=O)[C@H](Cc1ccc(O)cc1)NC(=O)[C@H](CCCCN)NC(=O)[C@H](CO)NC(=O)[C@H](CC(C)C)NC(=O)[C@H](CC(=O)O)NC(=O)[C@H](CO)NC(=O)[C@@H](NC(=O)[C@H](Cc1ccccc1)NC(=O)[C@@H](NC(=O)CNC(=O)[C@H](CCC(N)=O)NC(=O)C(C)(C)NC(=O)[C@@H](N)Cc1c[nH]cn1)[C@@H](C)O)[C@@H](C)O)C(=O)N[C@@H](CC(=O)O)C(=O)N[C@@H](C)C(=O)N[C@@H](CCCNC(=N)N)C(=O)N[C@@H](CCCNC(=N)N)C(=O)N[C@@H](C)C(=O)N[C@@H](CCCNC(=N)N)C(=O)N[C@@H](CC(=O)O)C(=O)N[C@@H](Cc1ccccc1)C(=O)N[C@H](C(=O)N[C@@H](CCC(N)=O)C(=O)N[C@@H](Cc1c[nH]c2ccccc12)C(=O)N[C@@H](CC(C)C)C(=O)N[C@@H](CC(C)C)C(=O)N[C@@H](CO)C(=O)N[C@@H](CCCCNC(=O)CC[C@H](NC(=O)CC[C@H](NC(=O)COCCOCCNC(=O)COCCOCCNC(=O)CC[C@H](NC(=O)CCCCCCCCCCCCCCCCC(=O)O)C(=O)O)C(=O)O)C(=O)O)C(N)=O)C(C)C [Example 66, N^ε29-[(4S)-4-carboxy-4-[[(4S)-4-carboxy-4-[[2-[2-[2-[[2-[2-[2-[[(4S)-4-carboxy-4-(17-carboxyheptadecanoylamino)butanoyl]amino]ethoxy]ethoxy]acetyl]amino]ethoxy]ethoxy]acetyl]amino]butanoyl]amino]butanoyl]-[Aib2,Leu10,Ala16,Arg20,Leu27,Ser28,Lys29]-Glucagon amide] (H-H[Aib]QGTFTSDLSKYLDARRARDFVQWLLSK([γGlu-γGlu-AEEA-AEEA-γGlu-C18 diacid])-NH2; N-terminus assumed)"
